Assay results as given in patent US20240247235A1, “niPSCs DERIVED FROM SOMATIC CELLS” (UNIVERSITA' DEGLI STUDI DI PADOVA, priority 2018, published 2024).

Key:
Human fibroblasts = test: mmRNA (OSKMN) reprogramming of fibroblasts to naïve-like iPSC colonies in microfluidics; format: cell-based
Protocol: Microfluidic channels were coated with 25 μg/ml fibronectin (Sigma Aldrich) for 30 min at room temperature. Somatic cells were seeded on day −1 of reprogramming at 25 cells/mm^2 for feeder-free reprogramming in DMEM/10% FBS. Such seeding density allowed robust proliferation and survival of somatic cells during reprogramming. On day 0, 2 hours before the first mmRNA transfection, the medium was changed to PRM, a medium optimized from mRNA transfection and previously used for derivation of primed PSCs (StemMACS ReproBREW XF, Miltenyi biotec). When indicated, 1 μM CH, 1 μM CH and 5 μM Ri were added to PRM. Transfection period is of 9 h. Cells were transfected daily at 9 am, and fresh PRM was given daily at 6 pm. On day 6, medium was changed with a naïve supporting medium according to table 1 and the same regime of transfection and fresh medium change was maintained until day 12. From day 0 to 12, media were supplemented with 200 ng/mL^−1 B18R (eBioscience). Transfections using a OSKMN+nGFP mmRNA mix (POU5F1, SOX2, KLF4, c-MYC, NANOG, nuclear GFP) were started on day 0 and daily repeated for 12 d. […]
Freshly-derived colonies were then cultured for 3 days without mmRNAs (day 15) to allow their complete clearance, and analyzed in situ for naïve or primed associated markers. […] Success rate, measured as the percentage of microfluidic channels containing naïve-like colonies, was evaluated (FIG. 3c). […]

primed iPS cells = test: Expansion of mixed primed- and naïve-like colonies generated in CCC with FGF receptor inhibitor; format: cell-based, human; details: expanded with inhibitor
Protocol: Side-by-side experiments comparing μF and CCC were performed. Generation of niPSCs in μF was robust (100% of channels contained colonies, with an efficiency of 3.7%+1.0 and 3.1%+0.4 from BJ and HFF-1, respectively, FIG. 9a). Conversely, in CCC only 25% of wells contained naïve-like colonies, with efficiency of 0.2% and 0.04%.

Cc1c[nH]c(-c2cnc(NCCNc3ccc(C#N)cn3)nc2-c2ccc(Cl)cc2Cl)n1 [CH, CHIR99021]
Formed naïve-like colonies, inhibitor added to PRM during the first 6 days (Human fibroblasts; PRM + 1 μM CHIR99021 days 0-6, then 2LiGo+KSR, compared with other inhibitor combinations (FIG. 3b)): Best results in term of formed colonies

CCN(CC)CCCCNc1ncc2cc(-c3cc(OC)cc(OC)c3)c(NC(=O)NC(C)(C)C)nc2n1 [PD173074]
Effect on primed iPS cells in mixed primed/naïve culture (primed iPS cells): primed iPS cells were eliminated

C[C@@H](N)[C@H]1CC[C@H](C(=O)Nc2ccncc2)CC1 [ROCK inhibitor, Y27632]
Effect on colony formation efficiency (Human fibroblasts; added to reprogramming in 2iLGo+KSR, OSKMN mmRNA, microfluidics (FIG. 3c-e)): increased colony formation efficiency
